The conditions of data set [1]: at 20° C.; cited from earlier work.
A short description of data set [2]: Chemical degradation of flumioxazin in contact with aqueous salt solution.
A short description of data set [3]: Solubility of flumioxazin in organic solvents.
Data set [4] in a line: Adsorption of glyphosate by colloidal hydrophilic silica (HPLC of supernatant). Type of data set: physicochemical. As to conditions: 23% a.e. aqueous solution of glyphosate isopropylammonium salt, 20° C., 16 hours. The source says: Where the water-soluble active ingredient is a salt of the herbicide glyphosate, it was initially feared that addition of colloidal hydrophilic silica might reduce herbicidal effectiveness by adsorption of glyphosate to the silica. A test was therefore conducted to determine the degree of adsorption of glyphosate by the highest concentration of colloidal hydrophilic silica likely to be used in a composition of the invention, i.e. 5% by weight, and by even higher concentrations.
The procedure for this test is to add a weighed amount of Aerosil™ COK-84 colloidal hydrophilic silica to a measured volume of glyphosate isopropylammonium salt solution of known concentration (23% a.e. by weight) in a stoppered glass bottle and agitate gently at a temperature of 20° C. for 16 hours. The solution is then centrifuged to deposit the silica, leaving a clear supematant. The supernatant is analyzed for glyphosate by HPLC. The amount of adsorption is calculated from the reduction in glyphosate concentration in the supernatant solution by comparison with the initial concentration.

Data set [5] has as its system tsuyukusa (Commelina communis). Put plainly: Greenhouse tank-mix study, herbicidal effectiveness (Table 1). Type of data set: in vivo. As to conditions: glyphosate 2160 g a.e./ha + flumioxazin 0 g/ha. The source says: (§1) Tank-mix studies have shown that addition of a relatively small amount of flumioxazin to glyphosate alleviates both the above-mentioned disadvantages. Data from a tank-mix study in a greenhouse illustrating the benefit of simultaneous application of glyphosate+flumioxazin over a higher rate of glyphosate alone are presented in Table 1. Herbicide rates are given in grams per hectare (g/ha); rates shown for glyphosate (which was applied in this study as the isopropylammonium salt) are expressed as acid equivalent (a.e.). Herbicidal effectiveness is measured as percent inhibition by comparison with untreated plants, based on visual assessment by a technician trained in the art of making such assessments, at four times, namely 3, 7, 20 and 27 days after treatment (DAT). Data are presented for two dicotyledonous weed species, “inutade” (Polygonum longisetum) and “tsuyukusa” (Commelina communis), that are known to tolerate high rates of glyphosate.

The subject of data set [6] is inutade (Polygonum longisetum). The data set is described as above. Format: in vivo. As to conditions: glyphosate 2160 g a.e./ha + flumioxazin 0 g/ha.
Description: as §1

Consider 2 compounds from patent US6569809B1, “Package-mix agricultural chemical compositions having improved stability” (Monsanto Company, priority 1999, dated 2003).

In the case of `C#CCN1C(=O)COc2cc(F)c(N3C(=O)C4=C(CCCC4)C3=O)cc21` [flumioxazin, 2-[7-fluoro-3,4-dihydro-3-oxo-4-(2-propynyl)-2H-1,4-benzoxazin-6-yl]-4,5,6,7-tetrahydro-1H-isoindole-1,3(2H)-dione], the specific gravity in data set [1] is recorded as 1.51. Moreover, the “rate of chemical degradation” value in data set [2] (benzyl acetate as the organic solvent, compared with phenylxylylethane) is given as “much more rapid”. Also, the chemical degradation result is on record as “insignificant” in data set [2] (composition of the invention, aqueous phase mono(isopropylammonium) glyphosate pH about 4.5 to about 5, even at elevated temperatures) and “undergo chemical degradation” in data set [2] (exposed to a concentrated aqueous salt solution such as a solution of glyphosate salt for prolonged periods). For the same compound, the rate of degradation entry in data set [2] (pH of the aqueous phase raised (addition of a base or dibasic salt of glyphosate)) was “significant increase”. Also, the “solubility in organic solvent” value was “rather soluble” in data set [3] (benzyl acetate) and “only very sparingly soluble” in data set [3] (phenylxylylethane).

Consider `O=C(O)CNCP(=O)(O)O` [glyphosate, N-phosphonomethylglycine], for which the glyphosate adsorption is recorded as 12% in data set [4] (silica concentration 10%) and 40% in data set [4] (silica concentration 20%). Moreover, the percent inhibition in data set [5] (3 DAT) is 0%; in data set [5] (7 DAT) it was 0%; in data set [5] (20 DAT), 50%; in data set [5] (27 DAT), 62%; in data set [6] (3 DAT) it was 0%; in data set [6] (7 DAT), 0%. The percent inhibition in data set [6] (20 DAT) is on record as 45%; in data set [6] (27 DAT), 70%.
